Values joined by “and” are separate entries in the source; they are usually repeats but may differ in a detail not shown here. Equal values may be shown once. Read-outs that look alike come from different tables or passages of the source.
Tests used:
[1] = Metabolic stability / metabolite detection in rat liver microsomes
Protocol: (§1) Pooled male and female human and rat liver microsomes were obtained commercially from BD Bioscience (San Jose, CA) and Xenotech (Lenexa, KS), respectively. […] Reactions were started by the addition of microsomes and stopped by removing 100 μL aliquots at each time point. […] As positive control, 10μM midazolam was incubated with microsomes for 0, 15, 30 and 60 min in a 37°C water bath and with heat-inactivated microsomes for 0 and 60 min. […] All assays were done in duplicates.
(§2) Reactions were stopped by removing 150 μL aliquots at 0, 5, 15, and 30 min and mixing with acetonitrile containing hexyl nicotinate as internal standard. […] Samples were analyzed in full-scan mode with MS/MS product-ion spectra generated for detected metabolite masses. This was performed using the EMS (enhanced MS scan) mode of the mass spectrometer with IDA (independent data acquisition) experiments to produce MS/MS product-ion spectra for masses detected at sufficient intensities. […] All assays were done in duplicate.

[2] = Metabolic stability / metabolite detection in human liver microsomes
Protocol: as §1, §2

[3] = 4R plasma stability in human plasma; format: in vitro ADME; conditions: 10 μM 4R, 0-60 min at 37°C
Protocol: The samples were centrifuged at 18,000 x g for 10 min and the supernatants (100–250 μL) transferred to an HPLC vial containing 900 μl of 60% acetonitrile. The LC-MS/MS analysis was carried out using a high-performance liquid chromatography system consisting of a Shimadzu LC-20AD pump, (Shimadzu Scientific Instruments, Columbia, MA), and a CTC analytics PAL autosampler operating at 10°C (Leap technologies, Carrboro, NC). The MS instrument used was a 4000 QTrap triple quadrupole tandem mass spectrometer (Applied Biosystems/MDS Sciex, Foster City, CA). Electrospray ionization in positive ion mode (ESI+) was used. […] All samples were assayed in duplicate.

[4] = Solubility of 4R in dosing vehicle; format: physicochemical; conditions: 12 mg/mL in 10% DMSO and 90% PEG400, room temperature
Protocol: The solution was sterile filtered using a Millipore Millex-GS 0.22 μm syringe filter. Dose formulations were prepared on Day 1 prior to dose administration and were maintained at room temperature until administration to the animals.

[5] = 4R plasma stability in rat plasma; format: in vitro ADME; conditions: 10 μM 4R
Protocol: The samples were centrifuged at 18,000 x g for 10 min and the supernatants (100–250 μL) transferred to an HPLC vial containing 900 μl of 60% acetonitrile. The LC-MS/MS analysis was carried out using a high-performance liquid chromatography system consisting of a Shimadzu LC-20AD pump, (Shimadzu Scientific Instruments, Columbia, MA), and a CTC analytics PAL autosampler operating at 10°C (Leap technologies, Carrboro, NC). The MS instrument used was a 4000 QTrap triple quadrupole tandem mass spectrometer (Applied Biosystems/MDS Sciex, Foster City, CA). Electrospray ionization in positive ion mode (ESI+) was used. The detection of 4R was performed using the multiple reaction monitoring (MRM) mode. […] All samples were assayed in duplicate.

[6] = Plasma and brain 4R concentrations and pharmacokinetics in male rats; format: in vivo, Sprague-Dawley rat; conditions: for Kp at 1.5 h: brain and plasma, 90 min after dose, read-out: Ratio Cmax brain/ plasma; for Kp at 1.5 h / Cmax / Tmax / half-life: 6 mg/kg; for bioavailability: read-out: F (bioavailability)
Protocol: Twelve-week old male Sprague-Dawley rats weighing 307–373 g at the time of the experiment were used. […] The dosing volume of injection was 0.5 mL/kg for the i.m. and s.c. routes and 5 mL/kg for the i.v. route. […] Animal procedure for housing and care was performed according to the National Research Council (NRC) Guide for the Care and Use of Laboratory Animals and the Animal Welfare Standards incorporated in 9 Code of Federal Regulations Part 3, 1991. The animals had 12 hr light/dark cycles and at least 10 room volumes per hour with no recirculation of air. Purina certified rodent chow and water was provided ad libitum.
Blood samples were collected via a jugular vein catheter at each of the following time points: 2, 5, 10, 20, 45, 60, 90 min and 2, 4, 8 hr. […] The samples were vortexed, centrifuged and the supernatants removed. The supernatants were evaporated to dryness and reconstituted in a solvent mixture containing 50/50/0.1 acetronile/water/formic acid (v/v/v) with 10ng/mL hexyl nicotinate as internal standard. […] Rat brains were collected at 10, 60 or 90 min, and 8 hr post dose and frozen at -70°C. On the day of the analysis, the brains were homogenized in PBS using 4 parts phosphate buffer and 1 part brain (g/g). […] The lower limit of quantitation of the LC-MS/MS was 20.0 ng/ml for plasma and 100 ng/g for brain.
Parameters were calculated for each individual animal. The peak concentration in plasma (Cmax) and the corresponding time of maximum concentration (Tmax) were determined directly from the data. The area under the plasma concentration-time curve (AUC) from time 0–8 hr was calculated using the log/linear trapezoidal (i.v. route) or linear up/log down trapezoidal (i.m. and s.c routes) methods. The dose administered was input to the program as mg/kg, and as a result no additional corrections for individual body weights of the animals were necessary. The following parameters and constants were determined for the three groups: observed maximum plasma concentration (Cmax), time to maximum plasma concentration (Tmax), area under the plasma concentration-time curve to the last time point (AUClast), area under the plasma concentration-time curve extrapolated to infinity (AUCinf), terminal phase elimination half-life (t1/2). Bioavailability (F) after i.m. and s.c. administration was calculated using their respective AUCinf values divided by the AUCinf value of the i.v. group.

[7] = 10 μM, heat-inactivated microsomes, 60 min
[8] = 10 μM, 5 min, metabolite detection experiment
[9] = 10 μM, 15 min, metabolite detection experiment
[10] = 50 μM, 30 min, metabolite detection experiment
[11] = both, rat, liver microsomes, pH 7.4
[12] = both, human, liver microsomes, pH 7.4
[13] = male, Sprague-Dawley, rat, plasma, im, 6 mg/kg i.m.
[14] = male, Sprague-Dawley, rat, plasma, iv, 6 mg/kg i.v.
[15] = male, Sprague-Dawley, rat, plasma, sc, 6 mg/kg s.c.

Cc1ncc2n1-c1ccc(Cl)cc1C(c1ccccc1F)=NC2 [MDZ, Midazolam, reference compound]
percent remaining with heat-inactivated microsomes [1, 7]: 108%
percent remaining with heat-inactivated microsomes [2, 7]: 89%

C/C1=C\[C@H](O)C[C@@](C)(O)/C=C/C(C(C)C)CC/C(C)=C/CC1 (stereo partly drawn) [4R, (1S, 2E, 4R, 6R, 7E, 11E)-cembra-2,7,11-triene-4,6-diol]
mean percent 4R content versus control [3]: 96–103%
percent 4R remaining [1, 8]: 34%
percent 4R remaining [1, 9]: less than 2%
mean percent 4R remaining [1, 10]: ≤ 7.3%
remaining at 5 min, 1 μM [1, 11]: 19%
remaining at 5 min, 10 μM [1, 11]: 29%
remaining at 0.25 h, 1 μM [1, 11]: 4%
remaining at 0.25 h, 10 μM [1, 11]: < 2%
percent 4R remaining [2, 8]: 18%
percent 4R remaining [2, 9]: less than 2%
mean percent 4R remaining [2, 10]: ≤ 7.3%
remaining at 5 min, 1 μM [2, 12]: 8%
remaining at 5 min, 10 μM [2, 12]: 15%
remaining at 0.25 h, 1 μM [2, 12]: 4%
remaining at 0.25 h, 10 μM [2, 12]: < 2%
appearance of 4R formulation (solubility) [4]: clear colorless solution
mean percent 4R content versus control ([5]; 0-60 min at 37°C): 97–101%
mean percent 4R content ([5]; 60 min at room temperature): 96%
Brain Cmax ([6]; 6 mg/kg i.m.): 329 ng/g and 329 ± 50 ng/g
time to maximum brain level ([6]; 6 mg/kg i.m.): 90 min
plasma 4R level ([6]; 6 mg/kg i.m., by 8 hr post dose): below the LLOQ
brain Cmax, times higher than s.c. or i.m. ([6]; 6 mg/kg i.v.): 20 times
Brain Cmax ([6]; 6 mg/kg i.v., at 10 min): 6516 ng/g and 6516 ± 1091 ng/g
time to reach the brain ([6]; 6 mg/kg i.v., post dose): ≤ 10 min
Brain Cmax ([6]; 6 mg/kg s.c.): 323 ng/g and 323 ± 90 ng/g
time to maximum brain level ([6]; 6 mg/kg s.c.): 90 min
Brain Cmax ([6]; 6 mg/kg s.c. or i.m.): 300 to 400 ng/mL
maximum mean 4R brain level ([6]; 6 mg/kg s.c., at 90 min): 323 ± 90
plasma 4R level ([6]; 6 mg/kg s.c., by 8 hr post dose): below the LLOQ
Kp at 1.5 h ([6]; male, Sprague-Dawley, rat, im, 6 mg/kg i.m.): 2.49
Kp at 1.5 h ([6]; male, Sprague-Dawley, rat, sc, 6 mg/kg s.c.): 2.48
concentration at 1 hr ([6]; male, Sprague-Dawley, rat, brain, intravenous, 6 mg/kg i.v., at 1 hr post dose): 3000 ± 771 ng/g
AUC(0-inf) ([6]; male, Sprague-Dawley, rat, im, 6 mg/kg i.m., plasma): 395 ± 138 ng·h/mL
AUC(0-inf) ([6]; male, Sprague-Dawley, rat, iv, 6 mg/kg i.v., plasma): 1140 ± 224 ng·h/mL
Cmax [6, 13]: 163 ng/mL
Tmax [6, 13]: ~1 h
half-life ([6]; male, Sprague-Dawley, rat, plasma, im, 6 mg/kg i.m., male rats, read-out: t1/2 (converted)): ~1.5 h
bioavailability ([6]; male, Sprague-Dawley, rat, plasma, intramuscular, 6 mg/kg i.m., AUCinf relative to i.v.): 35%
concentration at 1 hr ([6]; male, Sprague-Dawley, rat, plasma, intramuscular, 6 mg/kg i.m., at 1 hr): 157 ± 86 ng/mL
concentration at 5 min ([6]; male, Sprague-Dawley, rat, plasma, intravenous, 6 mg/kg i.v., at 5 min): 975 ± 104 ng/mL
concentration at 8 hr ([6]; male, Sprague-Dawley, rat, plasma, intravenous, 6 mg/kg i.v., by 8 hr post dose): < 20 ng/mL
Cmax [6, 14]: 1020 ± 49 ng/mL
half-life ([6]; male, Sprague-Dawley, rat, plasma, iv, 6 mg/kg i.v., male rats, read-out: t1/2 (converted)): 0.6 ± 0.1 h
half-life ([6]; male, Sprague-Dawley, rat, plasma, iv, 6 mg/kg i.v., read-out: elimination t1/2): 0.6 h
bioavailability [6, 14]: 100%
Cmax [6, 15]: 138 ± 28 ng/mL
Tmax [6, 15]: 1 h
half-life ([6]; male, Sprague-Dawley, rat, plasma, sc, 6 mg/kg s.c., male rats, read-out: t1/2 (converted)): ~1.5 h
bioavailability ([6]; male, Sprague-Dawley, rat, plasma, subcutaneous, 6 mg/kg s.c., AUCinf relative to i.v.): 41%
concentration at 1 hr ([6]; male, Sprague-Dawley, rat, plasma, subcutaneous, 6 mg/kg s.c., at 1 hr): 134 ± 34 ng/mL
AUC(0-inf) ([6]; male, Sprague-Dawley, rat, sc, 6 mg/kg s.c., plasma): 466 ± 56 ng·h/mL

From PMC4374761, “Pharmacokinetics and Metabolism of 4R-Cembranoid” (PLoS ONE, 2015)
